From patent US20150025120A1, “PYRAZOLE-ALCOHOL COMPOUNDS AND PHARMACEUTICAL USE THEREOF” (JAPAN TOBACCO INC., priority 2013, published 2015)

Experiments:
[1] = system: Zucker Diabetic Fatty rats; assay: Effect of repeated administration of test compound on HbA1c in ZDF rats; format: in vivo, rat; settings: 1 mg/kg orally once daily, mean ± standard deviation (n = 10)
Procedure: Zucker Diabetic Fatty rats (male, 7-week-old, CHARLES RIVER LABORATORIES JAPAN INC.), an animal model for type 2 diabetes, given a purified diet (5.9% fat diet, Oriental Yeast Co., Ltd.) were allocated to the vehicle group and the test compound groups so that no bias occurred in the plasma glucose and insulin levels, HbA1c levels and body weights. Repeated oral doses of the test compound (1 mg/kg/5 mL) were administered to the rats once daily at 3 hr before the dark period. A 0.5% aqueous methylcellulose solution was orally administered in the same manner to the rats of the vehicle group. On day 14 or 21 of administration, blood samples were collected from the tail vein and HbA1c level (%) was measured. Statistical analysis was performed by Dunnett's test. Values of p<0.05 were considered statistically significant.

[2] = biological target: T1, hERG current (hERG-transfected HEK293 cells) (Homo sapiens, UniProt Q12809); assay: hERG whole cell patch clamp test; format: cell-based; settings: for IC50: whole cell patch clamp, hERG-transfected HEK293 cells
T1 construct: host or cells: HEK293
Procedure: Using human ether-a-go-go related gene (hERG)-transfected HEK293 cells (Cytomyx Limited), an influence on hERG current was examined according to the whole cell patch clamp technique. The hERG-transfected HEK293 cells were passaged using a CO2 incubator (BNA-111, TABAI ESPEC CORP.) under the set conditions of 37° C., 5% CO2, saturated humidity. Culture containers used were Collagen Type I Coated 75 cm^2 flask (4123-010, AGC TECHNO GLASS CO., Ltd.) and Collagen Type I Coated 35 mm culture dish (4000-010, AGC TECHNO GLASS CO., Ltd.). The culture medium used was E-MEM (Eagle Minimum Essential Medium (Earle's Salts, Nikken biomedical laboratory) added with 10% FCS (Fetal calf serum, BioWest, L.L.C.) and 1% MEM Non-Essential Amino Acids Solution (NEAA, Invitrogen Corporation). Geneticin for the selection of hERG gene expressing cells was added thereto to a concentration of 400 μg/mL. As the cells for the measurement, 3×10^4 hERG-transfected HEK293 cells were plated on a 35 mm culture dish 4 to 7 days before measurement of the hERG current. The culture dish produced for the measurement contained the above-mentioned culture medium without geneticin (Invitrogen Corporation).
The highest evaluation concentration of each compound was determined from the highest concentration at which precipitation was not found in the standard extracellular fluid (NaCl: 140 mmol/L, KCl: 2.5 mmol/L, MgCl2: 2 mmol/L, CaCl2: 2 mmol/L, HEPES: 10 mmol/L, glucose: 10 mmol/L (adjusted to pH 7.4 with Tris-base)). As the application method, each solution to be applied was ejected from a Y-tube having a tip diameter of about 0.25 mm, which was adjacent (about 2 mm) to the cells, and applied to the cells. The ejection rate was about 0.4 mL/min.
The experiment was performed at room temperature under a phase contrast microscope. The 35 mm culture dish plated with the cells was set on a measurement apparatus, and the standard extracellular fluid was continuously applied to the cells from the Y-tube. A glass electrode for the measurement was filled with an intracellular fluid (Potassium Gluconate: 130 mmol/L, KCl: 20 mmol/L, MgCl2: 1 mmol/L, ATP-Mg: 5 mmol/L, EGTA: 3.5 mmol/L, HEPES: 10 mmol/L (adjusted to pH 7.2 with Tris-base)). A conventional whole cell patch clamp method was applied to the cells, and the maintenance electric potential was set to −80 mV. Under a fixed electric potential, the whole cell current was amplified by an amplifier for patch clamp (AXOPATCH-200B, Axon Instruments, Inc.), and the data was loaded into a computer (IMC-P642400, Intermedical Co., Ltd.) using a data acquisition analysis software (pCLAMP 9.2, Axon Instruments, Inc.).
The measurement of the hERG current was performed in the following two steps. In both cases, the hERG current was initiated by giving a command potential (maintenance electric potential −80 mV, prepulse+20 mV, 1.5 sec, test-pulse −50 mV, 1.5 sec).
Step (1): The above-mentioned command potential was given at 0.1 Hz for 2 min.
Step (2): The above-mentioned command potential was subjected to P/3 subtraction of pCLAMP 9.2 to remove leak current. This was repeated three times and an average thereof was taken as hERG current.
Subsequent to step (1), Step (2) was performed (about 3 min), and the maximum tail current obtained by applying a test-pulse to the hERG current obtained by the method of step (2) was taken as hERG current value. Hereafter, the operations of (1) and (2) were alternately repeated until completion of the experiment and the hERG current value was measured.
Stable hERG current value was recorded three times (about 10 min), and the standard extracellular fluid was instantaneously exchanged with each application fluid. The hERG current value was measured three times (about 10 min) in the same manner during perfusion of the application fluid, and the current value obtained by the 3rd measurement was taken as hERG current value after perfusion of the application fluid. […]

[3] = Metabolic stability test in liver microsome (rat); format: in vitro ADME

T1 sequence (Q12809 whole entry): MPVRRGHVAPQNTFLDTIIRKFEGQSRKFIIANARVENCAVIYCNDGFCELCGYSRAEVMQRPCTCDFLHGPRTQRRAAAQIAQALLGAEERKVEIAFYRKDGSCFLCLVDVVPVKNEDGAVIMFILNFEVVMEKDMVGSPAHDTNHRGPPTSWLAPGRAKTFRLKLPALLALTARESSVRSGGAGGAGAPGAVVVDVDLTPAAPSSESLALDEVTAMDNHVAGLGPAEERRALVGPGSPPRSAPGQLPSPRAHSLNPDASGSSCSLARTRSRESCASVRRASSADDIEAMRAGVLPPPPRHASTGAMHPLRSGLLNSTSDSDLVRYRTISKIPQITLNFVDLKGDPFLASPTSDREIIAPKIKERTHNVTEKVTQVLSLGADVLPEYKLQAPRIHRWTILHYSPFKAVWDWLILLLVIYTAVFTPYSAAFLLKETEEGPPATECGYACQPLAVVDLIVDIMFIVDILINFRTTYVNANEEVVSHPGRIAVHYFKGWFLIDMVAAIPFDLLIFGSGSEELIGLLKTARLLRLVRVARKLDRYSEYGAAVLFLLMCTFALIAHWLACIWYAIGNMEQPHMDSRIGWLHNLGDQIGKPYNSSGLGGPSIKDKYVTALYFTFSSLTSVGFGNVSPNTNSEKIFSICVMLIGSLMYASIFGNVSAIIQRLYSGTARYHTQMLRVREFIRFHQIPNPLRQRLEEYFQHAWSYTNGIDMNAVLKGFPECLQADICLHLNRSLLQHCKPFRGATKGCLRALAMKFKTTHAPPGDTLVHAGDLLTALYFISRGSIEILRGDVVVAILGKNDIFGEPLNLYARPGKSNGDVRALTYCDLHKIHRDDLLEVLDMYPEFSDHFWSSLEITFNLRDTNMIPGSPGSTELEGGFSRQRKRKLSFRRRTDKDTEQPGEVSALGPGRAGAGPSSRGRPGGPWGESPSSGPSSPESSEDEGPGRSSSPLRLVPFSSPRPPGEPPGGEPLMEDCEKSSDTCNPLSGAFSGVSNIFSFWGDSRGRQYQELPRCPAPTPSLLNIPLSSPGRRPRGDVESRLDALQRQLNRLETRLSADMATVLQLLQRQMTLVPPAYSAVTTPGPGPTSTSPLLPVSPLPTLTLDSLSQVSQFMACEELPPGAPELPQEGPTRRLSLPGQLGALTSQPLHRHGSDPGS

Row | Structure (SMILES) | stability in liver microsome (residual ratio %) ([3]; 10 min) [%] | stability in liver microsome (residual ratio %) ([3]; 60 min) [%] | HbAlc (%) ([1]; day 21 of administration) | hERG inhibition rate (%) ([2]; concentration 10 μmol/L) | hERG inhibition rate (%) ([2]; concentration 100 μmol/L) | IC50 [2] [µM] | HbAlc (%) ([1]; day 14 of administration) | hERG inhibition rate (%) ([2]; concentration 30 μmol/L) | hERG inhibition rate (%) ([2]; concentration 1 μmol/L)
1 | CC(C)(O)COc1cc(-c2cnn(CC(C)(C)O)c2)c2c(c1)[C@@](O)(C(F)(F)F)c1ccccc1-2 [compound (2), (9R)-2-(2-hydroxy-2-methylpropoxy)-4-[1-(2-hydroxy-2-methylpropyl)-1H-pyrazol-4-yl]-9-(trifluoromethyl)-9H-fluoren-9-ol] | 95.1 | 93.6 | – | 13.2 | 67.6 | 47.6 | 3.5 ± 0.1 | – | –
2 | CC(C)(O)CCCOc1cc(-c2cnn(CC(C)(C)O)c2)c2c(c1)[C@@](O)(C(F)(F)F)c1ccccc1-2 [compound (4), (9R)-2-(4-hydroxy-4-methylpentyloxy)-4-[1-(2-hydroxy-2-methylpropyl)-1H-pyrazol-4-yl]-9-(trifluoromethyl)-9H-fluoren-9-ol] | 98.9 | 93.5 | – | 18.6 | – | > 30 | – | 44.0 | –
3 | Cn1cc(-c2cc(OCC(C)(C)O)cc3c2-c2ccccc2[C@]3(O)C(F)(F)F)cn1 [compound (B), (9R)-2-(2-Hydroxy-2-methylpropoxy)-4-(1-methyl-1H-pyrazol-4-yl)-9-(trifluoromethyl)-9H-fluoren-9-ol, reference compound] | 101.1 | 92.1 | – | 72.9 | – | – | – | – | 17.4

The next lines start with results.

Row | stability in liver microsome (residual ratio %) ([3]; 10 min) [%] | stability in liver microsome (residual ratio %) ([3]; 60 min) [%] | Structure (SMILES) | HbAlc (%) ([1]; day 21 of administration) | hERG inhibition rate (%) ([2]; concentration 10 μmol/L) | hERG inhibition rate (%) ([2]; concentration 100 μmol/L) | IC50 [2] [µM] | HbAlc (%) ([1]; day 14 of administration) | hERG inhibition rate (%) ([2]; concentration 30 μmol/L) | hERG inhibition rate (%) ([2]; concentration 1 μmol/L)
4 | 102.0 | 95.4 | C[C@H](O)COc1cc(-c2cnn(CC(C)(C)O)c2)c2c(c1)[C@@](O)(C(F)(F)F)c1ccccc1-2 [compound (1), (9R)-4-[1-(2-hydroxy-2-methylpropyl)-1H-pyrazol-4-yl]-2-((2S)-2-hydroxypropoxy)-9-(trifluoromethyl)-9H-fluoren-9-ol] | 3.6 ± 0.3 | 16.2 | 62.3 | 54.4 | – | – | –
5 | 24.8 | 0.0 | NC(=O)Cn1cc(-c2cc(OCCC34CC5CC(CC(O)(C5)C3)C4)cc3c2-c2ccccc2[C@]3(O)C(F)(F)F)cn1 [compound (A), 2-(4-{(9R)-9-Hydroxy-2-[2-(3-hydroxyadamantan-1-yl)ethoxy]-9-(trifluoromethyl)-9H-fluoren-4-yl}-1H-pyrazol-1-yl)acetamide, reference compound] | – | 11.8 | – | – | – | – | –
